Residues, ends and D or L forms follow the SMILES beside them.
Assays:
[1] = test system: Plasma; assay: (§1) Half life in human plasma; assay type: ADME, cell-free
[2] = as §1; assay type: ADME, cell-free

SMILES	t1/2 [1] [min]	half-life [2] [min]
COC(=O)[C@H](Cc1ccc(OC(C)=O)c(OC(C)=O)c1)NC(=O)N[C@@H](Cc1ccc(OC(C)=O)c(OC(C)=O)c1)C(=O)OC	101.9	
COC(=O)[C@H](Cc1ccc(OC(C)=O)c(OC(C)=O)c1)NC(=O)CCCC(=O)N[C@@H](Cc1ccc(OC(C)=O)c(OC(C)=O)c1)C(=O)OC	63	
CCOC(=O)CNC(=O)OCN(c1ccc([N+](=O)[O-])cc1Oc1ccccc1)S(C)(=O)=O		954
C[C@H](NC(=O)[C@H](N)CC(=O)OCc1ccccc1)C(=O)O		211
CC(C)OC(=O)[C@@H](N)Cc1ccc(O)c(O)c1		238
Cc1cn([C@H]2C=C[C@@H](COC(=O)CN3CCN(c4cc5c(cc4F)c(=O)c(C(=O)O)cn5C4CC4)CC3)O2)c(=O)[nH]c1=O		240
Cc1cc(C)nc(N(COC(=O)C(C)(C)C)S(=O)(=O)c2ccc(N)cc2)n1		244
C[C@H](NC(=O)[C@H](N)CC(=O)OCc1ccc(F)cc1)C(=O)O		260
CCOC(=O)[C@H]1O[C@@H](Oc2cc3oc(-c4ccc(O)cc4)cc(=O)c3c(O)c2O)[C@H](O)[C@@H](O)[C@@H]1O		273
CCN(CC)CC(=O)N(COC(=O)C(C)(C)C)c1c(C)cccc1C		280
COC(=O)[C@@H](C)c1ccc2cc(OC)ccc2c1		316
CCC(=O)O[C@]1(C(=O)OCCl)CC[C@H]2[C@@H]3CCC4=CC(=O)CC[C@]4(C)[C@H]3[C@@H](O)C[C@@]21C		318
CC(C)C[C@H](NC(=O)[C@H](Cc1ccccc1)NC(=O)CNC(=O)CN1C(=O)[C@H](Cc2ccc(O)cc2)NC12CCCC2)C(=O)O		334
CCCC(CCC)C(=O)OCN(C)C(=O)c1ccccc1		384
CC(C)(C)C(=O)Oc1ccc2c3c1O[C@H]1C(=O)CC[C@@]4(O)[C@@H](C2)N(CC2CC2)CC[C@]314		562
CC(C)C[C@H](NC(=O)[C@H](Cc1ccccc1)NC(=O)CNC(=O)CN1C(=O)[C@H](Cc2ccc(O)cc2)NC12CCCCC2)C(=O)O		730
Cc1ncc([N+](=O)[O-])n1CCOC(=O)c1ccccc1C(=O)OCCn1c([N+](=O)[O-])cnc1C		743
COC(=O)O[C@]1(C(=O)OCCl)CC[C@H]2[C@@H]3CCC4=CC(=O)CC[C@]4(C)[C@H]3[C@@H](O)C[C@@]21C		960
CC(C)C[C@H](NC(=O)[C@H](Cc1ccccc1)NC(=O)CNC(=O)CN1C(=O)[C@H](Cc2ccc(O)cc2)NC12CCC(C)CC2)C(=O)O (stereo partly specified)		1130
CCCC(CCC)C(=O)OCN(CC(=O)OCC)C(=O)c1ccccc1		1320
CSCOC(=O)[C@@]1(O)CC[C@H]2[C@@H]3CCC4=CC(=O)C=C[C@]4(C)[C@H]3[C@@H](O)C[C@@]21C		2100
CSCOC(=O)[C@@]1(O)CC[C@H]2[C@@H]3CCC4=CC(=O)CC[C@]4(C)[C@H]3[C@@H](O)C[C@@]21C		2280

SMILES	t1/2 [1] [min]	half-life [2] [min]
CCC(CC)C(=O)Oc1ccc2c3c1O[C@H]1C(=O)CC[C@@]4(O)[C@@H](C2)N(CC2CC2)CC[C@]314		2680
CCOC(=O)CN(C)C(=O)OCN(c1ccc([N+](=O)[O-])cc1Oc1ccccc1)S(C)(=O)=O		2950
COc1ccc2c(c1)c(CC(=O)NCCOCCOCCO)c(C)n2C(=O)c1ccc(Cl)cc1		4440
CC(C)(C)OC(=O)Oc1ccc2c3c1O[C@H]1C(=O)CC[C@@]4(O)[C@@H](C2)N(CC2CC2)CC[C@]314		> 1440
CCN(CC)C(=O)COC(=O)[C@H](C)c1ccc(CC(C)C)cc1		1
C[C@@H](C(=O)OCC(=O)N(C)C)c1ccc(-c2ccccc2)c(F)c1		1.1
CCN(CC)C(=O)COC(=O)[C@@H](C)c1ccc(CC(C)C)cc1		1.4
CC(C)Cc1ccc([C@@H](C)C(=O)OCC(=O)N(C)C)cc1		1.5
CCN(CC)C(=O)COC(=O)[C@H](C)c1ccc(-c2ccccc2)c(F)c1		1.5
CCN(CC)C(=O)COC(=O)[C@@H](C)c1ccc(-c2ccccc2)c(F)c1		2.6
CC1(C)O[C@@H]2C[C@H]3[C@@H]4C[C@H](F)C5=CC(=O)C=C[C@]5(C)[C@@]4(F)[C@@H](O)C[C@]3(C)[C@]2(S[C@H]2CCOC2=O)O1		4
CCC[C@@H]1O[C@@H]2C[C@H]3[C@@H]4C[C@H](F)C5=CC(=O)C=C[C@]5(C)[C@@]4(F)[C@@H](O)C[C@]3(C)[C@]2(S[C@H]2CCOC2=O)O1		4
CCC[C@@H]1O[C@@H]2C[C@H]3[C@@H]4C[C@H](F)C5=CC(=O)CC[C@]5(C)[C@@]4(F)[C@@H](O)C[C@]3(C)[C@]2(S[C@@H]2CCOC2=O)O1		5
Cc1nccn1CCOC(=O)[C@H](C)c1ccc(CC(C)C)cc1		5.2
CC(C)Cc1ccc([C@H](C)C(=O)OCC(=O)N(C)C)cc1		7
C[C@H](C(=O)OCC(=O)N(C)C)c1ccc(-c2ccccc2)c(F)c1		11
C[C@@H](C(=O)OCCn1ccnc1)c1ccc(-c2ccccc2)c(F)c1		18
CC(C)Cc1ccc([C@@H](C)C(=O)OCCn2ccnc2)cc1		19
Cc1nccn1CCOC(=O)[C@H](C)c1ccc(-c2ccccc2)c(F)c1		38
Cc1nccn1CCOC(=O)[C@@H](C)c1ccc(CC(C)C)cc1		135
Cc1nccn1CCOC(=O)[C@@H](C)c1ccc(-c2ccccc2)c(F)c1		355
C[C@H](C(=O)OCCn1ccnc1)c1ccc(-c2ccccc2)c(F)c1		445

SMILES	t1/2 [1] [min]	half-life [2] [min]
CC(C)Cc1ccc([C@H](C)C(=O)OCCn2ccnc2)cc1		960
CCOC(=O)[C@H](C)c1ccc(CC(C)C)cc1		5580
CCOC(=O)[C@@H](C)c1ccc(CC(C)C)cc1		15900
Cc1ncc([N+](=O)[O-])n1CCOC(=O)CN1CCC(c2ccccc2)CC1		138
COC(=O)[C@H](Cc1ccc(OC(C)=O)c(OC(C)=O)c1)NC(=O)CCCC[C@@H]1CCSS1		52.8
CC(=O)Oc1ccc(CCNC(=O)CCCC[C@@H]2CCSS2)cc1OC(C)=O		10.3
COC(=O)[C@H](Cc1ccc(OC(C)=O)c(OC(C)=O)c1)NC(=O)CCC(=O)N[C@@H](Cc1ccc(OC(C)=O)c(OC(C)=O)c1)C(=O)OC	13.9	
COC(=O)[C@H](Cc1ccc(OC(C)=O)c(OC(C)=O)c1)NC(=O)CCCCC(=O)N[C@@H](Cc1ccc(OC(C)=O)c(OC(C)=O)c1)C(=O)OC	8	
CC(C)C[C@H]1NC(=O)[C@H](Cc2ccccc2)NC(=O)CNC(=O)[C@@H](C)NC(=O)[C@H](Cc2ccc(O)cc2)NC(=O)/C=C\c2ccccc2OCOC1=O		264
O=C(CCCC[C@@H]1CCSS1)NCCc1ccc(O)c(O)c1		81
COC(=O)[C@H](Cc1ccc(O)c(O)c1)NC(=O)CCCC[C@@H]1CCSS1		97.8
NCC(=O)N[C@@H](Cc1ccccc1)C(=O)O (H-Gly-Phe-OH)		71.5
COC(=O)[C@H](Cc1ccccc1)NC(=O)CN.Cl (H-Gly-Phe-OMe)		10
CC(C)[C@H](N)C(=O)OCCOCn1cnc2c(=O)[nH]c(N)nc21 (stereo in doubt; 160) [VALACYCLOVIR]		312
CC(C)[C@H](N)C(=O)OCCOCn1cnc2c(=O)[nH]c(N)nc21 (stereo in doubt; 167) [VALACYCLOVIR]	428	
CC(C)C[C@@H](NC(=O)[C@H](Cc1ccccc1)NC(=O)CNC(=O)[C@@H](C)NC(=O)[C@@H](N)Cc1ccc(O)cc1)C(=O)O [DADLE]		> 1440
O=C(CCCCCCCCC(=O)Oc1ccc2c3c1O[C@H]1[C@@H](O)CC[C@@]4(O)[C@@H](C2)N(CC2CCC2)CC[C@]314)Oc1ccc2c3c1O[C@H]1[C@@H](O)CC[C@@]4(O)[C@@H](C2)N(CC2CCC2)CC[C@]314 [DINALBUPHINE SEBACATE]		5.4
CC(C)C[C@H](NC(=O)[C@H](Cc1ccccc1)NC(=O)CNC(=O)CNC(=O)[C@@H](N)Cc1ccc(O)cc1)C(=O)O [ENKEPHALIN]	810	
CCOC(=O)[C@@H](N)Cc1ccc(O)c(O)c1 [ETILEVODOPA]		100
COc1ccccc1OC(=O)c1ccccc1Nc1cccc(C)c1C [MEFENAMIC ACID GUAIACOL ESTER]		914
CC(C)[N+](C)(CCOC(=O)C1c2ccccc2Oc2ccccc21)C(C)C [PROPANTHELINE]	370	
CC(=O)N(c1onc(C)c1C)S(=O)(=O)c1ccc(N)cc1 [SULFISOXAZOLE ACETYL]		0.3
